The subject of data set [1] is SKOV3: human ovarian carcinoma cell line. Briefly: Proliferation IC50 assay, oxic/hypoxic, SKOV3. Format: cell-based. The settings on record: for IC50: Homo sapiens, SK-OV-3, 4 h exposure under aerobic conditions; for HCR (hypoxic cytotoxicity ratio) SKOV3: IC50(aerobic)/IC10(hypoxic); for HCR SKOV3: IC50(aerobic)/IC50(hypoxic).
Data set [2] concerns HT29: human colon cancer cell line. In words: Proliferation IC50 assay, oxic/hypoxic, HT29. Format: cell-based. The following applies: for IC50: Homo sapiens, HT-29, 4 h exposure under aerobic conditions; for HCR (hypoxic cytotoxicity ratio) HT29: IC50(aerobic)/IC10(hypoxic); for HCR HT29: IC50(aerobic)/IC50(hypoxic).

Where a name gives a salt, the structure may show the parent alone.

As usually defined, the melting point is the temperature, or range, at which the solid turns liquid. One may read the IC50 as the concentration at which inhibition is half-maximal. The low end stands for greater potency, the high end for weaker potency.

Regarding `COc1cc2cc(C(=O)N3CC(CCl)c4c3cc([N+](=O)[O-])c3cc(S(C)(=O)=O)ccc43)[nH]c2c(OC)c1OC` (centres unmarked) [Compound 23, 1-(Chloromethyl)-7-(methylsulfonyl)-5-nitro-3-(5,6,7-trimethoxyindol-2-carbonyl)-1,2-dihydro-3H-benzo[e]indole], the melting point was 296 to 297 °C (dec.). In data set [1] (Table 3), the IC50 was determined as 17000 nM and the “HCR (hypoxic cytotoxicity ratio) SKOV3” value stood at 1.9. Moreover, in data set [2] (Table 3), the IC50 worked out at 14000 nM and the “HCR (hypoxic cytotoxicity ratio) HT29” value was determined as 2.0.

For the compound `COc1cc2cc(C(=O)N3CC(CCl)c4c3cc(N)c3cc(S(N)(=O)=O)ccc43)[nH]c2c(OC)c1OC` (centres unmarked) [Compound 59, 5-Amino-1-(chloromethyl)-3-(5,6,7-trimethoxyindol-2-carbonyl)-1,2-dihydro-3H-benzo[e]indole-7-sulfonamide], the melting point is 240 to 245 °C (dec.). Further, in data set [1] (Table 4), the IC50 was 41 nM and the “HCR SKOV3” value was 1.3. Besides, in data set [2] (Table 4), the IC50 amounted to 86 nM and the “HCR HT29” value came out at 1.1.

Compound `CC(=O)c1ccc2c3c(cc([N+](=O)[O-])c2c1)N(C(=O)c1cc2cc(OCCN(C)C)ccc2[nH]1)CC3CCl` (centres unmarked) [Compound 12, 7-Acetyl-1-(chloromethyl)-3-{5-[2-(dimethylamino)ethoxy]indol-2-carbonyl}-5-nitro-1,2-dihydro-3H-benzo[e]indole] returned a melting point of over 350 °C. Further, in data set [1] (Table 3), the IC50 came out at 640 nM and the “HCR (hypoxic cytotoxicity ratio) SKOV3” value came to 4.0. Also, in data set [2] (Table 3), the IC50 worked out at 170 nM and the “HCR (hypoxic cytotoxicity ratio) HT29” value turned out to be 1.5.

In turn, `COc1cc2cc(C(=O)N3CC(CCl)c4c3cc(N)c3cc(S(C)(=O)=O)ccc43)[nH]c2c(OC)c1OC` (centres unmarked) [Compound 57, 5-Amino-1-(chloromethyl)-7-(methylsulfonyl)-3-(5,6,7-trimethoxyindol-2-carbonyl)-1,2-dihydro-3H-benzo[e]indole] showed a melting point of 266 to 268 °C. In data set [1] (Table 4), half-maximal inhibition (IC50) was put at 32 nM and the “HCR SKOV3” value is listed as 1.2. In data set [2] (Table 4), half-maximal inhibition (IC50) required 32 nM and the “HCR HT29” value is reported as 0.86.

In the case of `COc1ccc(/C=C/C(=O)N2CC(CCl)c3c2cc([N+](=O)[O-])c2cc(S(=O)(=O)NCCO)ccc32)cc1` (centres unmarked) [Compound 37, 1-(Chloromethyl)-N-(2-hydroxyethyl)-3-[(E)-4-methoxycinnamoyl]-5-nitro-1,2-dihydro-3H-benzo[e]indole-7-sulfonamide], the melting point lay in the range of 250 to 251 °C. In data set [1] (Table 3), 4700 nM corresponded to half-maximal inhibition (IC50) and the “HCR (hypoxic cytotoxicity ratio) SKOV3” value stood at 3.4. For the same compound, in data set [2] (Table 3), the IC50 came out at 4800 nM and the “HCR (hypoxic cytotoxicity ratio) HT29” value was determined as 1.3.

`COc1cc2cc(C(=O)N3CC(CCl)c4c3cc(N)c3ccc(S(C)(=O)=O)cc43)[nH]c2c(OC)c1OC` (centres unmarked) [Compound 63, 5-Amino-1-(chloromethyl)-8-(methylsulfonyl)-3-(5,6,7-trimethoxyindol-2-carbonyl)-1,2-dihydro-3H-benzo[e]indole] registered a melting point of 165 to 170 °C. For the same compound, in data set [1] (Table 4), the IC50 is 19 nM and the “HCR SKOV3” value was determined as 1.4. In addition, in data set [2] (Table 4), the IC50 is 25 nM and the “HCR HT29” value amounted to 1.0.

Compound `COc1ccc(/C=C/C(=O)N2CC(CCl)c3c2cc([N+](=O)[O-])c2cc(S(N)(=O)=O)ccc32)cc1O` (centres unmarked) [Compound 27, 1-(Chloromethyl)-3-[(2E)-3-(3-hydroxy-4-methoxyphenyl)-2-propenoyl]-5-nitro-1,2-dihydro-3H-benzo[e]indole-7-sulfonamide] registered a melting point of 220 to 225 °C. Moreover, in data set [1] (Table 3), inhibition was half-maximal at 13000 nM (IC50) and the “HCR (hypoxic cytotoxicity ratio) SKOV3” value is 31. In data set [2] (Table 3), the IC50 was found to be 2400 nM and the “HCR (hypoxic cytotoxicity ratio) HT29” value was 1.8.

For the compound `CN(C)CCOc1ccc2[nH]c(C(=O)N3CC(CCl)c4c3cc([N+](=O)[O-])c3cc(N)ccc43)cc2c1` (centres unmarked) [Compound 10, 7-Amino-1-(chloromethyl)-3-{5-[2-(dimethylamino)ethoxy]indol-2-carbonyl}-5-nitro-1,2-dihydro-3H-benzo[e]indole], the melting point is over 300 °C. Further, in data set [1] (Table 3), the IC50 came out at 2500 nM and the “HCR (hypoxic cytotoxicity ratio) SKOV3” value is given as 2.0. Also, in data set [2] (Table 3), half-maximal inhibition (IC50) was put at 1800 nM and the “HCR (hypoxic cytotoxicity ratio) HT29” value turned out to be 2.4.

With `COc1cc2cc(C(=O)N3CC(CCl)c4c3cc([N+](=O)[O-])c3cc(C(=O)NCCO)ccc43)[nH]c2c(OC)c1OC` (centres unmarked) [Compound 17, 1-(Chloromethyl)-N-(2-hydroxyethyl)-5-nitro-3-(5,6,7-trimethoxyindol-2-carbonyl)-1,2-dihydro-3H-benzo[e]-indole-7-carboxamide], the melting point lay in the range of 244 to 245 °C. In data set [2] (Table 3), half-maximal inhibition (IC50) required 5700 nM and the “HCR (hypoxic cytotoxicity ratio) HT29” value is 1.7.

The compound `CN(C)CCOc1ccc2[nH]c(C(=O)N3CC(CCl)c4c3cc(N)c3ccc(S(C)(=O)=O)cc43)cc2c1` (centres unmarked) [Compound 64, 5-Amino-1-(chloromethyl)-3-{5-[2-(dimethylamino)ethoxy]indol-2-carbonyl}-8-(methylsulfonyl)-1,2-dihydro-3H-benzo[e]indole] had a melting point of 235 to 240 °C. Further, in data set [1] (Table 4), half-maximal inhibition (IC50) required 18 nM and the “HCR SKOV3” value is recorded as 1.5. Moreover, in data set [2] (Table 4), the IC50 was 29 nM and the “HCR HT29” value is given as 1.9.

Turning to `CN(C)CCOc1ccc2[nH]c(C(=O)N3CC(CCl)c4c3cc(N)c3cc(S(N)(=O)=O)ccc43)cc2c1` (centres unmarked) [Compound 60, 5-Amino-1-(chloromethyl)-3-{5-[2-(dimethylamino)ethoxy]indol-2-carbonyl}-1,2-dihydro-3H-benzo[e]indole-7-sulfonamide], the melting point is 260 to 266 °C (dec.). For the same compound, in data set [1] (Table 4), the IC50 was determined as 23 nM and the “HCR SKOV3” value came to 1.4. Moreover, in data set [2] (Table 4), the IC50 is 35 nM and the “HCR HT29” value turned out to be 1.8.

`CC(=O)c1ccc2c3c(cc(N)c2c1)N(C(=O)c1cc2cc(OCCN(C)C)ccc2[nH]1)CC3CCl` (centres unmarked) [Compound 53, 7-Acetyl-5-amino-1-(chloromethyl)-3-{5-[2-(dimethylamino)ethoxy]indol-2-carbonyl}-1,2-dihydro-3H-benzo[e]indole]: the melting point was 220 to 224 °C (dec.). In addition, in data set [1] (Table 4), the IC50 was 11 nM and the “HCR SKOV3” value is on record as 1.4. Moreover, in data set [2] (Table 4), the midpoint of inhibition, the IC50, lay at 7.6 nM and the “HCR HT29” value came to 1.5.

The compound `COc1cc2cc(C(=O)N3CC(CCl)c4c3cc([N+](=O)[O-])c3c(C(C)=O)cccc43)[nH]c2c(OC)c1OC` (centres unmarked) [Compound 3, 6-Acetyl-1-(chloromethyl)-5-nitro-3-(5,6,7-trimethoxyindol-2-carbonyl)-1,2-dihydro-3H-benzo[e]indole] returned a melting point of 180 to 183 °C. In data set [1] (Table 3), the IC50 came to 500 nM and the “HCR (hypoxic cytotoxicity ratio) SKOV3” value came out at 3.4. For the same compound, in data set [2] (Table 3), inhibition was half-maximal at 680 nM (IC50) and the “HCR (hypoxic cytotoxicity ratio) HT29” value is 2.0.

Compound `COc1ccc(/C=C/C(=O)N2CC(CCl)c3c2cc([N+](=O)[O-])c2cc(C(=O)NCCO)ccc32)cc1` (centres unmarked) [Compound 18, 1-(Chloromethyl)-N-(2-hydroxyethyl)-3-[(E)-4-methoxycinnamoyl]-5-nitro-1,2-dihydro-3H-benzo[e]indole7-carboxamide] registered a melting point of 240 to 241 °C. Also, in data set [1] (Table 3), the midpoint of inhibition, the IC50, lay at 4800 nM and the “HCR (hypoxic cytotoxicity ratio) SKOV3” value came to 4.7. Further, in data set [2] (Table 3), the IC50 came to 4400 nM and the “HCR (hypoxic cytotoxicity ratio) HT29” value is given as 4.4.

Regarding `CCC(=O)NS(=O)(=O)c1ccc2c3c(cc([N+](=O)[O-])c2c1)N(C(=O)c1cc2cc(OCCN(C)C)ccc2[nH]1)CC3CCl` (centres unmarked), the melting point was 221 to 225 °C.

On to `CNS(=O)(=O)c1ccc2c3c(cc([N+](=O)[O-])c2c1)N(C(=O)c1cc2cc(OCCN(C)C)ccc2[nH]1)CC3CCl` (centres unmarked) (as salt: HCl) [Compound 32, 1-(Chloromethyl)-3-{5-[2-(dimethylamino)ethoxy]indol-2-carbonyl}-N-methyl-5-nitro-1,2-dihydro-3H-benzo[e]indole-7-sulfonamide], for which the melting point is over 350 °C.

The compound `NS(=O)(=O)c1ccc2c3c(cc([N+](=O)[O-])c2c1)N(C(=O)c1cc2cc(OCCOP(=O)(O)O)ccc2[nH]1)CC3CCl` (centres unmarked) returned a melting point of 207 to 211 °C.

`COc1cc2cc(C(=O)N3CC(CCl)c4c3cc([N+](=O)[O-])c3cc(S(=O)(=O)NCCO)ccc43)[nH]c2c(OC)c1OC` (centres unmarked) [Compound 33, 1-(Chloromethyl)-N-(2-hydroxyethyl)-5-nitro-3-(5,6,7-trimethoxyindol-2-carbonyl)-1,2-dihydro-3H-benzo[e]indole-7-sulfonamide] yielded a melting point of 257 to 258 °C. In data set [1] (Table 3), the IC50 was determined as 13000 nM and the “HCR (hypoxic cytotoxicity ratio) SKOV3” value worked out at 5.8.

`CN(C)CCOc1ccc2[nH]c(C(=O)N3CC(CCl)c4c3cc([N+](=O)[O-])c3cc(C(=O)NCCO)ccc43)cc2c1` (centres unmarked) (as salt: HCl) [Compound 19, 1-(Chloromethyl)-3-(5-[2-(dimethylamino)ethoxy]indol-2-carbonyl)-N-(2-hydroxyethyl)-5-nitro-1,2-dihydro-3H-benzo[e]indole-7-carboxamide]: the melting point is 231 to 233 °C (dec.).

Compound `COC(=O)c1ccc2c3c(cc([N+](=O)[O-])c2c1)N(C(=O)c1cc2cc(OCCN(C)C)ccc2[nH]1)CC3CCl` (centres unmarked) (as salt: HCl) [Compound 14, Methyl 1-(chloromethyl)-3-{5-[2-(dimethylamino)ethoxy]indol-2-carbonyl}-5-nitro-1,2-dihydro-3H-benzo[e]indole-7-carboxylate] displayed a melting point of over 300 °C.

In turn, `CN(C)CCOc1ccc2[nH]c(C(=O)N3CC(CCl)c4c3cc([N+](=O)[O-])c3cc(S(N)(=O)=O)ccc43)cc2c1` (centres unmarked) (as salt: HCl) [Compound 26, 1-(Chloromethyl)-3-{5-[2-(dimethylamino)ethoxy]indol-2-carbonyl}-5-nitro-1,2-dihydro-3H-benzo[e]indole-7-sulfonamide] came in with a melting point of over 350 °C.

The values above are taken from patent publication US7718688B2, “Nitrobenzindoles and their use in cancer therapy” (Auckland Uniservices Limited, priority 2004, dated 2010).
